# In patent US20240216304A1, “CAPSAICIN AND TRPV1 MODULATOR COMPOSITIONS AND METHODS OF USE THEREOF” (The Children's Hospital of Philadelphia, priority 2020, published 2024):
# Assays:
# Diabetic Mice = test: Capsaicinoid-fatty acid combinations on glucose tolerance and insulin sensitivity in diabetic mice; format: in vivo; conditions: administered in the absence of OA (capsaicin 5 mg/kg, DHC 1 mg/kg); groups discontinued after first 72 hours (6 doses)
# Description: Eighty-four male db db mice (BKS. CG-Dock7m+/+LeprdbJ) are randomized at 8 weeks of age to produce seven equivalent groups (n=12/group) with respect to 4-hour fasting glucose and body weight. Treatment groups are as follow: Control (untreated); Capsaicin (5 mg/kg)+OA (615 mg/kg); DHC (1 mg/kg)+OA (615 mg/kg); capsaicin (10 mg/kg)+OA (615 mg/kg); DHC (10 mg/kg)+OA (615 mg/kg); capsaicin (5 mg/kg); DHC (1 mg/kg). Animals are administered the formulations via oral gavage in a volume of 5 mL/kg) twice daily for 28 days. Blood glucose is measured following a four hour fast on days 0, 7, 14, 21 and 28. On day 28, an oral glucose tolerance test (OGTT) is performed following a four-hour fast. Glucose (1.2 g/kg) is dosed at […], and glucose and insulin are measured at t=−60 minutes, 0, 15, 30, 60, 120, 180 and 240 minutes.
# TRPV1 = target: T1, TRPV1 (Homo sapiens, UniProt Q8NER1); test: Capsaicinoid-induced TRPV1 signaling in DRG neurons, Fluo-8 calcium imaging; format: cell-based; conditions: for treated neurons responding: agonist alone
# T1 construct: TRPV1 primary signaling in Human dorsal root ganglia (DRG) neurons in culture; endogenous in cells; host or cells: human dorsal root ganglia (DRG) neurons in culture
# T1 sequence (Q8NER1 whole entry): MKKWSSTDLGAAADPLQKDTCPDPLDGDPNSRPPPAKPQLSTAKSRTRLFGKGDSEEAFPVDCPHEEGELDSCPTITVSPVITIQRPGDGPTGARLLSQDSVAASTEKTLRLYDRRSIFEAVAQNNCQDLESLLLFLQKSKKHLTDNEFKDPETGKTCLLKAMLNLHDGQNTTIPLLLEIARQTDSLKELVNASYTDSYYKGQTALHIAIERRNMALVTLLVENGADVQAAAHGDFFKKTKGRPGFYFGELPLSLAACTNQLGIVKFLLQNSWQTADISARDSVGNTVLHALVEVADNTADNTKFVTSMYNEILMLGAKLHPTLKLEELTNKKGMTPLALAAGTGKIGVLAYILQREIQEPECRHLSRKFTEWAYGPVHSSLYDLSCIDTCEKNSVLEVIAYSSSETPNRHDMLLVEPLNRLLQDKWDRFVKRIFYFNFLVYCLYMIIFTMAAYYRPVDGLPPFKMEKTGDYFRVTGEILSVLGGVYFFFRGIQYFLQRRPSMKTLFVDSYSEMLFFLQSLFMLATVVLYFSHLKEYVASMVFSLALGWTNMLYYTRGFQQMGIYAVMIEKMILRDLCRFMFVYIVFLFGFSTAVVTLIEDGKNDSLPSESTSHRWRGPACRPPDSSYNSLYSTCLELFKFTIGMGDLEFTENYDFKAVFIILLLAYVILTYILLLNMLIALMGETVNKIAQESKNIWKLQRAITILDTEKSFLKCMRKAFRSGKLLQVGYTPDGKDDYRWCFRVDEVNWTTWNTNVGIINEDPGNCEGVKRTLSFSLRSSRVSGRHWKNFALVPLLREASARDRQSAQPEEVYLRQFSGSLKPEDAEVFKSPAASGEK
# Excerpt: The aim of this study was to evaluate the effects of oleic acid on antagaonizing capsaicinoid-induced TRPV1 primary signaling in Human dorsal root ganglia (DRG) neurons in culture. Human DRG neurons were studied in a perfusion system using the calcium dye Fluo-8. Detection of intracellular calcium transients was accomplished by measuring the changes in the fluorescence intensity of the Fluo-8 calcium indicator upon excitation at 480 nm and recording of the emitted signal at 520 nm using a pcoEDGE sCMOS camera mounted on an inverted microscope (Olympus IX71). The following protocol was utilized to study the effects of the fatty acids on capsaicin and DHC-stimulated calcium currents.
SMILES,tolerability (Diabetic Mice),maximal calcium (ΔF/F0) signal (TRPV1; DHC alone),treated neurons responding (TRPV1) [%],"maximal calcium (ΔF/F0) signal (TRPV1; DHC as agonist, with oleic acid administration)","neurons responding (TRPV1; DHC as agonist, with oleic acid administration (DHC alone 59%)) [%]","neurons responding (TRPV1; capsaicin as agonist, with oleic acid administration (capsaicin alone 74%)) [%]"
"COc1cc(CNC(=O)CCCCCCC(C)C)ccc1O [DHC, dihydrocapsaicin]",poorly tolerated,4.57,59,–,–,–
"COc1cc(CNC(=O)CCCC/C=C/C(C)C)ccc1O [capsaicin, (6E)-N-[(4-Hydroxy-3-methoxyphenyl)methyl]-8-methylnon-6-enamide]",poorly tolerated,–,74,–,–,–
CCCCCCCC/C=C\CCCCCCCC(=O)O [oleic acid],–,–,–,2.81,38,51
